pEC50: −log10 of the molar value. Values after ≈ are worked out from the molar mass of the structure shown. Where two headings read alike, the source gives them in different places.
Assays:
[1] = system: MDA-MB-435; assay: Bioassay for apoptosis (apoptotic EC50); type: cell-based, human; conditions: for pEC50: Table 1, read-out: EC50 for Apoptosis; for EC50: Homo sapiens, MDA-MB-435, MDA-MB-435, unit inferred, read-out: apoptotic EC50
Experimental: (§1) Cells were cultured at 1.5×10^5 cells/well in 12 well plates. Cells were allowed to adhere overnight, then incubated with novel test compounds at 0.01, 0.1, 1, 5, 10 & 20 μg/mL for 1, 2 and 3 days. After treatment, cells (floating+trypsin released adherent cells) were pelleted, washed and stained with 2 μg/ml DAPI (4′,6-diamidine-2′-phenylindole dihydrochloride) in 100% methanol for 15 minutes at 37° C. and/or 3′-OH ends resulting from DNA fragmentation were detected with the TUNEL (terminal deoxynucleotidyl transferase-mediated dUTP-X 3′ nick end-labeling) technique, and then viewed using a Zeiss ICM 405 microscope. Cells whose nucleus contained clearly condensed or fragmented chromatin or stained for fragmented DNA in the TUNEL assay were scored as apoptotic. Data are presented as percent cells undergoing apoptosis.

[2] = system: breast tumor cell line MDA-MB-435; assay: Bioassay for DNA synthesis arrest, naturally occurring vitamin E compounds; type: cell-based, human; conditions: Table 1
Experimental: Table 1 provides tumor growth inhibitory properties of naturally occurring vitamin E compounds against the breast tumor cell line MDA-MB-435.
To assay DNA synthesis, all cells were used at 2.5×10^5/ml. Cells were treated with each of the compounds at concentrations of 0.01, 0.1, 1, 5, 10 and 20 μg/mL and 200 μl of each treatment group were plated in quadruplicate in a 96 well culture plate (Corning, Corning N.Y.). Experiments were done in duplicate, one plate used for viability testing and the other plate for examination of ^3H-TdR uptake to monitor DNA synthesis. Plates were cultured for 48 hours at 37° C., 5% CO2. Eight hours prior to the end of incubation, ^3H-TdR was added to one of the duplicate plates and incubation continued for 8 hours.
The cells were then harvested (trypsinization was required to harvest adherent cells), and isotope uptake was determined as counts per minute (cpm). For viability studies, at the end of the incubation, the cells were removed from the wells and viability checked by the Trypan Blue Exclusion method. Percent viability and percent DNA synthesis in comparison to untreated or vehicle treated cells of each treatment group were calculated.

[3] = system: LnCaP; assay: Bioassay for apoptosis (apoptotic EC50); type: cell-based, human; conditions: for EC50: Homo sapiens, unit inferred
Experimental: as §1

[4] = system: Jurkat; assay: Bioassay for apoptosis (apoptotic EC50); type: cell-based, human
Experimental: as §1

[5] = system: ME-180; assay: Bioassay for apoptosis (apoptotic EC50); type: cell-based, human; conditions: for EC50: Homo sapiens, ME-180, ME-180, unit inferred
Experimental: as §1

[6] = system: HT-29; assay: Bioassay for apoptosis (apoptotic EC50); type: cell-based, human; conditions: Homo sapiens, unit inferred
Experimental: as §1

[7] = system: MCF-7; assay: Bioassay for apoptosis (apoptotic EC50); type: cell-based, human; conditions: for EC50: Homo sapiens, MCF7, MCF-7, unit inferred
Experimental: as §1

[8] = system: C-170; assay: Bioassay for apoptosis (apoptotic EC50); type: cell-based, human; conditions: for EC50: Homo sapiens, C170, C-170, unit inferred
Experimental: as §1

[9] = system: HL-60; assay: Bioassay for apoptosis (apoptotic EC50); type: cell-based, human; conditions: for EC50: Homo sapiens, HL-60, HL-60, unit inferred
Experimental: as §1

[10] = system: A-549; assay: Bioassay for apoptosis (apoptotic EC50); type: cell-based, human
Experimental: as §1

[11] = system: human cancer cells from a wide variety of cell lineages; assay: Apoptosis induction in a battery of tumor cells; type: cell-based; conditions: breast, prostate, leukemia/lymphoid, cervical, ovarian, endometrial, colon, lung cell lines
Experimental: as §1

[12] = system: MCF-10A; assay: Bioassay for apoptosis (apoptotic EC50); type: cell-based; conditions: Homo sapiens, unit inferred
Experimental: as §1

[13] = system: T47D; assay: Bioassay for apoptosis (apoptotic EC50); type: cell-based; conditions: Homo sapiens, unit inferred
Experimental: as §1

[14] = system: RL-95-2; assay: Bioassay for apoptosis (apoptotic EC50); type: cell-based, human; conditions: Homo sapiens, RL95-2, RL-95-2; unit inferred
Experimental: as §1

[15] = system: PC-3; assay: Bioassay for apoptosis (apoptotic EC50); type: cell-based, human; conditions: Homo sapiens, PC-3, PC-3; unit inferred
Experimental: as §1

[16] = system: MDA-MB-231; assay: Bioassay for apoptosis (apoptotic EC50); type: cell-based, human; conditions: Homo sapiens, MDA-MB-231, MDA-MB-231; unit inferred
Experimental: as §1

[17] = system: HMEC; assay: Bioassay for apoptosis (apoptotic EC50); type: cell-based; conditions: Homo sapiens, unit inferred
Experimental: as §1

[18] = system: DU-145; assay: Bioassay for apoptosis (apoptotic EC50); type: cell-based, human
Experimental: as §1

[19] = system: DLD-1; assay: Bioassay for apoptosis (apoptotic EC50); type: cell-based, human; conditions: Homo sapiens, unit inferred
Experimental: as §1

| SMILES | pEC50 ([1]; MDA-MB-435) | pEC50 [2] | EC50 [3] | EC50 [5] | EC50 [7] | EC50 [8] | EC50 [9] | growth inhibitory (apoptotic inducing) properties specific for human cancer cells [11] | EC50 [12] | EC50 [15] | EC50 [1] | also measured |
| --- | --- | --- | --- | --- | --- | --- | --- | --- | --- | --- | --- | --- |
| Cc1c(O)cc2c(c1C)O[C@](C)(CCC[C@H](C)CCC[C@H](C)CCCC(C)C)CC2 [γ-tocopherol, reference compound] | 3.52 | < 3.40 | – | – | – | – | – | – | – | – | – | – |
| Cc1cc(O)cc2c1O[C@](C)(CCC[C@H](C)CCC[C@H](C)CCCC(C)C)CC2 [δ-tocopherol, reference compound] | 4.00 | 3.82 | – | – | – | – | – | – | – | – | – | – |
| Cc1c(C)c2c(c(C)c1OCC(=O)O)CC[C@@](C)(CCCC(C)CCCC(C)CCCC(C)C)O2 (some centres unmarked) [Compound 17] | – | – | 10 to 20 mg/L (≈ 20.5 to 40.9 µM) | 20 to 30 mg/L (≈ 40.9 to 61.4 µM) | 10 to 20 mg/L (≈ 20.5 to 40.9 µM) | 20 to 30 mg/L (≈ 40.9 to 61.4 µM) | 10 to 20 mg/L (≈ 20.5 to 40.9 µM) | effective | > 20 mg/L | – | – | EC50 ([4]; Homo sapiens, unit inferred): 10 to 20 mg/L (≈ 20.5 to 40.9 µM); EC50 [6]: > 20 mg/L; EC50 ([10]; Homo sapiens, A549, unit inferred): > 20 mg/L; EC50 [13]: 10 to 20 mg/L (≈ 20.5 to 40.9 µM) |
| CC(C)=CCC/C(C)=C/CC/C(C)=C/CC[C@]1(C)CCc2cc(O)c(C)c(C)c2O1 [γ-tocotrienol, reference compound] | 5.00 | 5.00 | – | – | – | – | – | – | – | – | – | – |
| Cc1c(C)c2c(c(C)c1OCC(=O)N(CC(=O)O)CC(=O)O)CC[C@@](C)(CCC[C@H](C)CCC[C@H](C)CCCC(C)C)O2 [Compound 12] | – | – | 20 to 30 mg/L (≈ 33.1 to 49.7 µM) | 5 to 10 mg/L (≈ 8.28 to 16.6 µM) | 5 to 10 mg/L (≈ 8.28 to 16.6 µM) | 10 to 20 mg/L (≈ 16.6 to 33.1 µM) | 20 to 30 mg/L (≈ 33.1 to 49.7 µM) | effective | > 20 mg/L | 10 to 20 mg/L (≈ 16.6 to 33.1 µM) | 5 to 10 mg/L | EC50 [14]: 5 to 10 mg/L (≈ 8.28 to 16.6 µM); EC50 [16]: 5 to 10 mg/L (≈ 8.28 to 16.6 µM); EC50 [17]: > 20 mg/L |
| Cc1cc(OCC(=O)O)cc2c1O[C@](C)(CCC[C@H](C)CCC[C@H](C)CCCC(C)C)CC2 [Compound 9, 2,8-dimethyl-(2R-(4R,8R,12-trimethyltridecyl)chroman-6-yloxy)acetic acid] | – | – | 5 to 10 mg/L (≈ 10.9 to 21.7 µM) | 5 to 10 mg/L (≈ 10.9 to 21.7 µM) | 10 to 20 mg/L (≈ 21.7 to 43.4 µM) | > 20 mg/L | 10 to 20 mg/L (≈ 21.7 to 43.4 µM) | effective | > 20 mg/L | 5 to 10 mg/L (≈ 10.9 to 21.7 µM) | 5 to 10 mg/L | EC50 [14]: 5 to 10 mg/L (≈ 10.9 to 21.7 µM); EC50 [16]: 5 to 10 mg/L (≈ 10.9 to 21.7 µM); EC50 [17]: > 20 mg/L |
| CC(C)=CCC/C(C)=C/CC/C(C)=C/CC[C@]1(C)CCc2cc(O)cc(C)c2O1 [δ-tocotrienol, reference compound] | 5.30 | 5.30 | – | – | – | – | – | – | – | – | – | – |
| Cc1c(C)c2c(c(C)c1OCCCN)CC[C@@](C)(CCC[C@H](C)CCCC(C)CCCC(C)C)O2.Cl (some centres unmarked) [Compound 19] | – | – | – | – | – | – | – | effective | – | – | – | apoptotic EC50 ([3]; unit not given, in µg/mL): 5-10; apoptotic EC50 ([4]; unit not given, in µg/mL): 10-20; apoptotic EC50 ([18]; unit not given, in µg/mL): 5-10; apoptotic EC50 ([5]; ME-180, unit not given, in µg/mL): 1-5; apoptotic EC50 ([7]; MCF-7, unit not given, in µg/mL): 10-20; apoptotic EC50 ([8]; C-170, unit not given, in µg/mL): 1-5; apoptotic EC50 ([9]; HL-60, unit not given, in µg/mL): 10-20; apoptotic EC50 ([10]; unit not given, in µg/mL): 20-30; apoptotic EC50 ([1]; MDA-MB-435, unit not given, in µg/mL): 10-20 |
| CCCCCCCCCCCCC[C@]1(C)CCc2c(C)c(OCC(=O)O)c(C)c(C)c2O1 [Compound 24, 2,5,7,8-tetramethyl-(2R-(tridecyl)chroman-6-yloxy)acetic acid] | – | – | > 20 mg/L | – | > 20 mg/L | – | – | – | – | > 20 mg/L | > 20 mg/L | EC50 ([18]; Homo sapiens, unit inferred): > 20 mg/L; EC50 [19]: > 20 mg/L |

Reference: US8148424B2, “Tocopherols, tocotrienols, other chroman and side chain derivatives and uses thereof” (Research Development Foundation, priority 1998, dated 2012)
